Values of other authors in patent US10188772B2, “Drug delivery medical device” (Micell Technologies, Inc., priority 2012, dated 2019).

Biological target: FKBP12 (Homo sapiens, UniProt P62942)
Sequence (P62942 whole entry, species assumed): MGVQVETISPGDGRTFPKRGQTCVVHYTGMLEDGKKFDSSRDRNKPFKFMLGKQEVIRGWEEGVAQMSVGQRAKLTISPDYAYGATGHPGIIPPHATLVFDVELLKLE

| SMILES | FKBP12 binding |
| --- | --- |
| C=CC[C@@H]1/C=C(\C)C[C@H](C)C[C@H](OC)[C@H]2O[C@@](O)(C(=O)C(=O)N3CCCC[C@H]3C(=O)O[C@H](/C(C)=C/[C@@H]3CC[C@@H](O)[C@H](OC)C3)[C@H](C)[C@@H](O)CC1=O)[C@H](C)C[C@@H]2OC [Tacrolimus] | 0.2 to 0.4 nM |
| CC[C@@H]1/C=C(\C)C[C@H](C)C[C@H](OC)[C@H]2O[C@@](O)(C(=O)C(=O)N3CCCC[C@H]3C(=O)O[C@H](/C(C)=C/[C@@H]3CC[C@H](Cl)[C@H](OC)C3)[C@H](C)[C@@H](O)CC1=O)[C@H](C)C[C@@H]2OC [Pimecrolimus] | about 1.2 nM |

More lines, now with the values ahead:

| FKBP12 binding | SMILES |
| --- | --- |
| about the same as Sirolimus | CO[C@H]1C[C@@H]2CC[C@@H](C)[C@@](O)(O2)C(=O)C(=O)N2CCCC[C@H]2C(=O)O[C@H]([C@H](C)C[C@@H]2CC[C@@H](OC(=O)C(C)(CO)CO)[C@H](OC)C2)CC(=O)[C@H](C)/C=C(\C)[C@@H](O)[C@@H](OC)C(=O)[C@H](C)C[C@H](C)/C=C/C=C/C=C/1C [Temsirolimus, 42-[3-hydroxy-2-(hydroxymethyl)-2-methylpropanoate]rapamycin] |
| 1.8 to 2.6 nM | CO[C@H]1C[C@@H]2CC[C@@H](C)[C@@](O)(O2)C(=O)C(=O)N2CCCC[C@H]2C(=O)O[C@H]([C@H](C)C[C@@H]2CC[C@@H](OCCO)[C@H](OC)C2)CC(=O)[C@H](C)/C=C(\C)[C@@H](O)[C@@H](OC)C(=O)[C@H](C)C[C@H](C)/C=C/C=C/C=C/1C [Everolimus, 40-O-(2-Hydroxyethyl)rapamycin] |
| 2.0 to 3.2 nM | CO[C@H]1C[C@@H]2CC[C@@H](C)[C@@](O)(O2)C(=O)C(=O)N2CCCC[C@H]2C(=O)O[C@H]([C@H](C)C[C@@H]2CC[C@H](n3cnnn3)[C@H](OC)C2)CC(=O)[C@H](C)/C=C(\C)[C@@H](O)[C@@H](OC)C(=O)[C@H](C)C[C@H](C)/C=C/C=C/C=C/1C [Zotarolimus] |
